Structures are written as SMILES.

Here are results for 14 compounds from patent publication US5541163A, “Renin inhibiting N-(2-amino-2-oxoethyl)butanediamide derivatives” (Bio-Mega/Boehringer Ingelheim Research Inc., priority 1993, dated 1996).

The test addresses T1, human renin (Homo sapiens, UniProt P00797).
T1 construct: A human plasma pool is used as the source of both the substrate (angiotensinogen) and the enzyme (renin); from tissue; host or cells: human plasma pool
T1 sequence (P00797 67-406): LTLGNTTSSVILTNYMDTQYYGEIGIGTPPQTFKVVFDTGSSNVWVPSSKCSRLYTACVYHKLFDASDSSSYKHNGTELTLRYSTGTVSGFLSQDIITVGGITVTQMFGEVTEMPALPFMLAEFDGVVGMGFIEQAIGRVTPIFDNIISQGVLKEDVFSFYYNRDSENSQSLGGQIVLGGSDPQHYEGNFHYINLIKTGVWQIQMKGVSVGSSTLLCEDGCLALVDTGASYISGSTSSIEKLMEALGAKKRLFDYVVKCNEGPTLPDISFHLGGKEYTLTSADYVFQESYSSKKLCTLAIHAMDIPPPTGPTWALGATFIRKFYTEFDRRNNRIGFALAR
Briefly: Plasma renin assay (inhibition of human renin, angiotensin I by RIA). It counts as biochemical. As to conditions: human plasma pool, pH 6.0, 2 h incubation at 37°. In outline:
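Pooled human plasma supplies both renin and angiotensinogen; inhibitor in MES/1% HSA buffer (1% DMSO final) incubated 2 h at 37° at pH 6.0. Angiotensin I generated quantified by radioimmunoassay, inhibition relative to no-inhibitor control, IC50 by nonlinear regression.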
Consider `CC(C)C[C@H](O)[C@H](O)[C@H](CC1CCCCC1)NC(=O)[C@@H](CC(=O)N(CC(=O)N1CCOCC1)CC1CCCC1)Cc1csc(N)n1` [Compound 80, N^4-(cyclopentylmethyl)-N^4-(2-morpholino-2-oxoethyl)-N^1-[1(S)-(cyclohexylmethyl)-2(R),3(S)-dihydroxy-5-methylhexyl]-2(R)-[(2-amino-4-thiazolyl)methyl]butanediamide], for which half-maximal inhibition (IC50) was put at 2 nM.
Consider `CC(C)C[C@H](O)[C@H](O)[C@H](CC1CCCCC1)NC(=O)[C@@H](CC(=O)N(CC(=O)N(C)CCc1ccccn1)CC1CCCCCC1)Cc1csc(N)n1` [Compound 81, N^4-(cycloheptylmethyl)-N^4 -{2-{methyl[2-(2-pyridinyl)ethyl]amino}-2-oxoethyl}-N^1-[1(S)-(cyclohexylmethyl)-2(R),3(S)-dihydroxy-5-methylhexyl]-2(R)-[(2-amino-4-thiazolyl)-methyl]butanediamide], for which 1 nM corresponded to half-maximal inhibition (IC50).
Regarding `CC(C)C[C@H](O)[C@H](O)[C@H](CC1CCCCC1)NC(=O)[C@@H](CC(=O)N(CC(=O)N(C)CCc1ccccn1)Cc1ccccc1F)Cc1csc(N)n1` [Compound 82, N^4-[(2-fluorophenyl)methyl]-N^4 -{2-{methyl[2-(2-pyridinyl)ethyl]-amino}-2-oxoethyl}-N^1-[1(S)-(cyclohexylmethyl)-2(R),3(S)-dihydroxy-5-methylhexyl]-2(R)-[(2-amino-4-thiazolyl)methyl]butanediamide], the IC50 (in general, the concentration that gives 50% inhibition) was 3 nM.
For `CC(C)C[C@H](O)[C@H](O)[C@H](CC1CCCCC1)NC(=O)[C@@H](CC(=O)N(CC(=O)N(C)CCN(C)C(=O)N1CCOCC1)CC1CCCCC1)Cc1csc(N)n1` [Compound 83, N^4-(cyclohexylmethyl)-N^4 -{2-{methyl{2-[methyl(morpholinocarbonyl)-amino]ethyl}amino}-2-oxoethyl}-N^1-[1(S)-(cyclohexylmethyl)-2(R),3(S)-dihydroxy-5-methylhexyl]-2(R)-[(2-amino-4-thiazolyl)methyl]butanediamide] the value was 0.35 nM; for `CCC(CC)CN(CC(=O)N(C)CCc1ccccn1)C(=O)C[C@@H](Cc1csc(N)n1)C(=O)N[C@@H](CC1CCCCC1)[C@@H](O)[C@@H](O)CC(C)C` [Compound 84, N^4-(2-ethylbutyl)-N^4 -{2-{methyl[2-(2-pyridinyl)ethyl]amino}-2-oxoethyl}-N^1-[1(S)-(cyclohexylmethyl)-2(R),3(S)-dihydroxy-5-methylhexyl]-2(R)-[(2-amino-4-thiazolyl)methyl]-butanediamide], 3 nM; for `CC(C)C[C@H](O)[C@H](O)[C@H](CC1CCCCC1)NC(=O)[C@@H](CC(=O)N(CC(=O)N(C)C)CC1CCCC1)Cc1csc(N)n1` [Compound 85, N^4-(cyclopentylmethyl)-N^4-[2-(dimethylamino)-2-oxoethyl]-N^1-[1(S)-(cyclohexylmethyl)-2(R),3(S)-dihydroxy-5-methylhexyl]-2(R)-[(2-amino-4-thiazolyl)methyl]butanediamide], 1 nM.
For `CC(C)C[C@H](O)[C@H](O)[C@H](CC1CCCCC1)NC(=O)[C@@H](CC(=O)N(CC(=O)N(C)CCc1ccccn1)Cc1nccs1)Cc1csc(N)n1` [Compound 86, N^4 -{2-{methyl[2-(2-pyridinyl)ethyl]-amino}-2-oxoethyl}-N^4-(2-thiazolylmethyl)-N^1-[1(S)-(cyclohexylmethyl)-2(R),3(S)-dihydroxy-5-methylhexyl]-2(R)-[(2-amino-4-thiazolyl)methyl]-butanediamide] the value was 6 nM; for `CC(C)C[C@H](O)[C@H](O)[C@H](CC1CCCCC1)NC(=O)[C@@H](CC(=O)N(CCC1CCCC1)CC(=O)N(C)CCc1ccccn1)Cc1csc(N)n1` [Compound 87, N^4-(2-cyclopentylethyl)-N^4 -{2-{methyl[2-(2-pyridinyl)ethyl]amino}-2-oxoethyl}-N^1-[1(S)-(cyclohexylmethyl)-2(R),3(S)-dihydroxy-5-methylhexyl]-2(R)-[(2-amino-4-thiazolyl)-methyl]butanediamide], 2 nM.
Take `Cc1ccsc1CN(CC(=O)N(C)CCc1ccccn1)C(=O)C[C@@H](Cc1csc(N)n1)C(=O)N[C@@H](CC1CCCCC1)[C@@H](O)[C@@H](O)CC(C)C` [Compound 88, N^4 -{2-{methyl[2-(2-pyridinyl)ethyl]-amino}-2-oxoethyl}-N^4-[(3-methyl-2-thienyl)methyl]-N^4-[1(S)-(cyclohexylmethyl)-2(R),3(S)-dihydroxy-5-methylhexyl]-2(R)-[(2-amino-4-thiazolyl)methyl]butanediamide]: it took 4 nM to reach half-maximal inhibition (IC50).
Then `CC(C)C[C@H](O)[C@H](O)[C@H](CC1CCCCC1)NC(=O)[C@@H](CC(=O)N(CC(=O)N(C)CCc1ccccn1)Cc1ccoc1)Cc1csc(N)n1` [Compound 89, N^4-(3-furanylmethyl)-N^4 -{2-{methyl-[2-(2-pyridinyl)ethyl]amino}-2-oxoethyl}-N^1-[1(S)-(cyclohexylmethyl)-2(R),3(S)-dihydroxy-5-methylhexyl]-2(R)-[(2-amino-4-thiazolyl)-methyl]butanediamide], with 3 nM.
For `CC(C)C[C@H](O)[C@H](O)[C@H](CC1CCCCC1)NC(=O)[C@@H](CC(=O)N(CC(=O)N(C)CCN1CCOCC1)CC1CCCCC1)Cc1csc(N)n1` [Compound 90, N^4-(cyclohexylmethyl)-N^4 -{2-{methyl-(2-morpholinoethyl)amino]-2-oxoethyl}-N^1-[(S)-(cyclohexylmethyl)-2(R),3(S)-dihydroxy-5-methylhexyl]-2(R)-[(2-amino-4-thiazolyl)methyl]-butanediamide] the value was 0.5 nM.
With `CCCC(CCC)N(CC(=O)N(C)CCc1ccccn1)C(=O)C[C@@H](Cc1csc(N)n1)C(=O)N[C@@H](CC1CCCCC1)[C@@H](O)[C@@H](O)CC(C)C` [Compound 91], the IC50 was 8 nM.
For `CCCC(CCC)CN(CC(=O)N(C)CCc1ccccn1)C(=O)C[C@@H](Cc1csc(N)n1)C(=O)N[C@@H](CC1CCCCC1)[C@@H](O)[C@@H](O)CC(C)C` [Compound 92, N^4 -{2-{methyl[2-(2-pyridinyl)ethyl]-amino}-2-oxoethyl}-N^4-(2-propylpentyl)-N^1-[1(S)-(cyclohexylmethyl)-2(R),3(S)-dihydroxy-5-methylhexyl]-2(R)-[(2-amino-4-thiazolyl)methyl]-butanediamide], the IC50 was found to be 5 nM.
`CC(C)C[C@H](O)[C@H](O)[C@H](CC1CCCCC1)NC(=O)[C@@H](CC(=O)N(CC(=O)N(C)CCN1CCOCC1)[C@@H](C)c1ccccc1)Cc1csc(N)n1` [Compound 93, N^4 -{2-[methyl(2-morpholinoethyl)-amino]-2-oxoethyl}-N^4-[1(S)-phenylethyl]-N^1-[1(S)-(cyclohexylmethyl)-2(R),3(S)-dihydroxy-5-methylhexyl]-2(R)-[(2-amino-4-thiazolyl)methyl]-butanediamide] showed an IC50 of 2 nM.
